# Tests used:
# Conditions in all cases: Mus musculus
# RAW264.7 [1] = experiment: Decrease in iNOS level in LPS-activated Raw 264.7 cells; type: functional, cell-based
# RAW264.7 [2] = experiment: Inhibition of iNOS expression in LPS-activated Raw 264.7 cells at 2 uM; type: functional
# RAW264.7 [3] = experiment: Inhibition of COX2 expression in LPS-activated Raw 264.7 cells at 3 uM; type: functional
# RAW264.7 [4] = experiment: Decrease in COX2 level in LPS-activated Raw 264.7 cells; type: functional, cell-based
structure (smiles),measurement,setting,value
C/C=C/c1ccc(Oc2ccc(O)cc2)c(C(C)CO)c1 (centres undefined) [RODGERSINOL],Activity,RAW264.7 [1],Dose-dependent effect
same,inhibition at 2 µM,RAW264.7 [2],50%
same,inhibition at 3 µM,RAW264.7 [3],50%
same,Activity,RAW264.7 [4],Dose-dependent effect

# Source: ChEMBL document CHEMBL1148679, “A novel iNOS and COX-2 inhibitor from the aerial parts of Rodgersia podophylla” (2006)
